Source: patent US20050013856A1, “Solid dispersions comprising a hygroscopic and/or deliquescent drug” (priority 2002, published 2005)

Legend:
[1] = Hygroscopicity / deliquescence of the unformulated drug; type: physicochemical
From the text: It is particularly surprising that such a hygroscopic and deliquescent drug can be formulated in accordance with the present invention as an acceptably non-hygroscopic composition.

[2] = Solubility of the drug in matrix forming agents HPMC and PEG; type: physicochemical

Hygroscopicity and deliquescence [1] | Solubility in HPMC and PEG [2] | Molecule
extremely hygroscopic and deliquescent | low solubility | CC(=N)NCCSC[C@](C)(N)C(=O)O [S-[2-[(1-iminoethyl)amino]ethyl]-2-methyl-L-cysteine]
extremely hygroscopic and deliquescent | – | S-[2-[(1-iminoethyl)amino]ethyl]-2-methyl-L-cysteine dihydrochoride [Compound A]
